Source: PubChem BioAssay (NCI)
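1) Cells in 96-well plates. 2) Compound, 48 h, 5 concentrations. 3) Linear interpolation between surrounding doses. 4) Unreached endpoint = highest concentration. GI50 marks 50% less growth. TGI: concentration producing complete growth inhibition.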

Key:
Test in all cases: NCI anticancer screen, dose series, 48 h
PC-3 prostate = tested on: PC-3 prostate
SK-MEL-2 melanoma = tested on: SK-MEL-2 melanoma
CAKI-1 renal = tested on: CAKI-1 renal
NCI-H522 lung = tested on: NCI-H522 lung
SF-539 CNS = tested on: SF-539 CNS
HL-60(TB) leukemia = tested on: HL-60(TB) leukemia
UACC-257 melanoma = tested on: UACC-257 melanoma
SF-295 CNS = tested on: SF-295 CNS
HCT-116 colon = tested on: HCT-116 colon
OVCAR-5 ovarian = tested on: OVCAR-5 ovarian
COLO 205 colon = tested on: COLO 205 colon
SK-OV-3 ovarian = tested on: SK-OV-3 ovarian
RPMI-8226 leukemia = tested on: RPMI-8226 leukemia
A549 NSCLC = tested on: A549 NSCLC
HCC-2998 colon = tested on: HCC-2998 colon
HOP-92 NSCLC = tested on: HOP-92 NSCLC
CCRF-CEM leukemia = tested on: CCRF-CEM leukemia
K-562 leukemia = tested on: K-562 leukemia
MDA-MB-435 = tested on: MDA-MB-435
KM12 colon = tested on: KM12 colon
NCI/ADR-RES ovarian = tested on: NCI/ADR-RES ovarian
ACHN renal = tested on: ACHN renal
U251 CNS = tested on: U251 CNS
MCF7 breast = tested on: MCF7 breast
SF-268 CNS = tested on: SF-268 CNS
SN12C renal = tested on: SN12C renal
IGROV1 ovarian = tested on: IGROV1 ovarian
MDA-MB-468 breast = tested on: MDA-MB-468 breast
OVCAR-3 ovarian = tested on: OVCAR-3 ovarian
BT-549 breast = tested on: BT-549 breast
UACC-62 melanoma = tested on: UACC-62 melanoma
SNB-19 CNS = tested on: SNB-19 CNS
DU-145 prostate = tested on: DU-145 prostate
SW-620 colon = tested on: SW-620 colon
M14 melanoma = tested on: M14 melanoma
HS 578T breast = tested on: HS 578T breast
NCI-H23 lung = tested on: NCI-H23 lung
NCI-H460 lung = tested on: NCI-H460 lung
MALME-3M melanoma = tested on: MALME-3M melanoma
MDA-MB-231 breast = tested on: MDA-MB-231 breast
HCT-15 colon = tested on: HCT-15 colon
786-0 renal = tested on: 786-0 renal
OVCAR-4 ovarian = tested on: OVCAR-4 ovarian
EKVX NSCLC = tested on: EKVX NSCLC
SK-MEL-5 melanoma = tested on: SK-MEL-5 melanoma
SK-MEL-28 melanoma = tested on: SK-MEL-28 melanoma
SR leukemia = tested on: SR leukemia
NCI-H226 lung = tested on: NCI-H226 lung
SNB-75 CNS = tested on: SNB-75 CNS
T-47D breast = tested on: T-47D breast
UO-31 renal = tested on: UO-31 renal
RXF 393 renal = tested on: RXF 393 renal
OVCAR-8 ovarian = tested on: OVCAR-8 ovarian
HT29 colon = tested on: HT29 colon
A498 renal = tested on: A498 renal
HOP-62 NSCLC = tested on: HOP-62 NSCLC
LOX IMVI melanoma = tested on: LOX IMVI melanoma
TK-10 renal = tested on: TK-10 renal
MOLT-4 leukemia = tested on: MOLT-4 leukemia

In the case of N#Cc1ccc(-c2nn(-c3ccc(C(=O)O)cc3)cc2CNc2cc(Cl)cc(C(F)(F)F)c2)cc1, the GI50 (PC-3 prostate) is reported as 7 µM, the TGI (PC-3 prostate) is reported as 35.1 µM and the GI50 (SK-MEL-2 melanoma) is reported as 2.96 µM. For the same molecule, the TGI (SK-MEL-2 melanoma) was 9.48 µM, the GI50 (CAKI-1 renal) was 10.2 µM and the TGI (CAKI-1 renal) was 45.2 µM. It also gave a GI50 (NCI-H522 lung) of 3.18 µM, a TGI (NCI-H522 lung) of 12.1 µM and a GI50 (SF-539 CNS) of 11.4 µM. It also gave a TGI (SF-539 CNS) of 24 µM, a GI50 (HL-60(TB) leukemia) of 6.31 µM and a TGI (HL-60(TB) leukemia) of 31.8 µM. For the same molecule, the GI50 (UACC-257 melanoma) was 7.02 µM, the TGI (UACC-257 melanoma) was 40.2 µM and the GI50 (SF-295 CNS) was 4.79 µM. The TGI (SF-295 CNS) was 22.9 µM, the GI50 (HCT-116 colon) was 4.46 µM and the TGI (HCT-116 colon) was 17.1 µM. The GI50 (OVCAR-5 ovarian) was 18.5 µM, the TGI (OVCAR-5 ovarian) was 36 µM and the GI50 (COLO 205 colon) was 14 µM. The TGI (COLO 205 colon) was 58.6 µM, the GI50 (SK-OV-3 ovarian) was 15.1 µM and the TGI (SK-OV-3 ovarian) was 37.9 µM. For the same molecule, the GI50 (RPMI-8226 leukemia) was 3.87 µM, the TGI (RPMI-8226 leukemia) was 63.5 µM and the GI50 (A549 NSCLC) was 7.98 µM. It also gave a TGI (A549 NSCLC) of 32.1 µM, a GI50 (HCC-2998 colon) of 6.46 µM and a TGI (HCC-2998 colon) of 19.8 µM. For the same molecule, the GI50 (HOP-92 NSCLC) was 3.48 µM, the TGI (HOP-92 NSCLC) was 15 µM and the GI50 (CCRF-CEM leukemia) was 4.2 µM. It also gave a TGI (CCRF-CEM leukemia) of 20.8 µM, a GI50 (K-562 leukemia) of 3.71 µM and a TGI (K-562 leukemia) greater than 100 µM. The GI50 (MDA-MB-435) was 7.05 µM, the TGI (MDA-MB-435) was 56.4 µM and the GI50 (KM12 colon) was 5.71 µM. It also gave a TGI (KM12 colon) of 19.3 µM, a GI50 (NCI/ADR-RES ovarian) of 7.45 µM and a TGI (NCI/ADR-RES ovarian) of 26.8 µM. The GI50 (ACHN renal) was 6.42 µM, the TGI (ACHN renal) was 52.7 µM and the GI50 (U251 CNS) was 7.26 µM. It also gave a TGI (U251 CNS) of 32.6 µM, a GI50 (MCF7 breast) of 5.16 µM and a TGI (MCF7 breast) of 26 µM. For the same molecule, the GI50 (SF-268 CNS) was 14.3 µM, the TGI (SF-268 CNS) was 67 µM and the GI50 (SN12C renal) was 6.89 µM. The TGI (SN12C renal) was 33 µM, the GI50 (IGROV1 ovarian) was 10.8 µM and the TGI (IGROV1 ovarian) was 29.3 µM. The GI50 (MDA-MB-468 breast) was 6.83 µM, the TGI (MDA-MB-468 breast) was 38.8 µM and the GI50 (OVCAR-3 ovarian) was 4.98 µM. It also gave a TGI (OVCAR-3 ovarian) of 18.6 µM, a GI50 (BT-549 breast) of 11.3 µM and a TGI (BT-549 breast) of 31.1 µM. The GI50 (UACC-62 melanoma) was 3.64 µM, the TGI (UACC-62 melanoma) was 14.4 µM and the GI50 (SNB-19 CNS) was 7.61 µM. It also gave a TGI (SNB-19 CNS) of 33.7 µM, a GI50 (DU-145 prostate) of 11.9 µM and a TGI (DU-145 prostate) greater than 100 µM. For the same molecule, the GI50 (SW-620 colon) was 9.22 µM, the TGI (SW-620 colon) was 25 µM and the GI50 (M14 melanoma) was 10.1 µM. It also gave a TGI (M14 melanoma) of 35.1 µM, a GI50 (HS 578T breast) of 7.95 µM and a TGI (HS 578T breast) of 36.1 µM. For the same molecule, the GI50 (NCI-H23 lung) was 5.19 µM, the TGI (NCI-H23 lung) was 19.4 µM and the GI50 (NCI-H460 lung) was 6.67 µM. For the same molecule, the TGI (NCI-H460 lung) was 21 µM, the GI50 (MALME-3M melanoma) was 6.44 µM and the TGI (MALME-3M melanoma) was 31.9 µM. The GI50 (MDA-MB-231 breast) was 12.3 µM, the TGI (MDA-MB-231 breast) was 37 µM and the GI50 (HCT-15 colon) was 3.93 µM. It also gave a TGI (HCT-15 colon) of 15.8 µM, a GI50 (786-0 renal) of 14.1 µM and a TGI (786-0 renal) of 32 µM. It also gave a GI50 (OVCAR-4 ovarian) of 7 µM, a TGI (OVCAR-4 ovarian) greater than 100 µM and a GI50 (EKVX NSCLC) of 5.47 µM. The TGI (EKVX NSCLC) was 30.8 µM, the GI50 (SK-MEL-5 melanoma) was 3.41 µM and the TGI (SK-MEL-5 melanoma) was 13.5 µM. It also gave a GI50 (SK-MEL-28 melanoma) of 4.6 µM, a TGI (SK-MEL-28 melanoma) of 28.3 µM and a GI50 (SR leukemia) of 3.77 µM. The TGI (SR leukemia) was greater than 100 µM, the GI50 (NCI-H226 lung) was 10.9 µM and the TGI (NCI-H226 lung) was 30.6 µM. The GI50 (SNB-75 CNS) was 15.5 µM, the TGI (SNB-75 CNS) was 45.6 µM and the GI50 (T-47D breast) was 3.8 µM. It also gave a TGI (T-47D breast) greater than 100 µM, a GI50 (UO-31 renal) of 4.34 µM and a TGI (UO-31 renal) of 22 µM. The GI50 (RXF 393 renal) was 10.3 µM, the TGI (RXF 393 renal) was 24.7 µM and the GI50 (OVCAR-8 ovarian) was 7.28 µM. For the same molecule, the TGI (OVCAR-8 ovarian) was 27.8 µM, the GI50 (HT29 colon) was 13.5 µM and the TGI (HT29 colon) was 38.2 µM. It also gave a GI50 (A498 renal) of 15.8 µM, a TGI (A498 renal) of 41 µM and a GI50 (HOP-62 NSCLC) of 11.7 µM. The TGI (HOP-62 NSCLC) was 28.3 µM, the GI50 (LOX IMVI melanoma) was 5.95 µM and the TGI (LOX IMVI melanoma) was 20.3 µM. It also gave a GI50 (TK-10 renal) of 17.2 µM, a TGI (TK-10 renal) greater than 100 µM and a GI50 (MOLT-4 leukemia) of 4.26 µM. The TGI (MOLT-4 leukemia) was 22.9 µM.
